We go through one substance from US12351789B2, “Method for producing cell laminate” (FUJIFILM CORPORATION, priority 2017, dated 2025).

The assay relates to cell laminate comprising a vascular endothelial cell layer and a smooth muscle cell layer on an HCM. As to the kind of experiment: Evaluation of response to physiologically active substances (thrombin added to cell laminate, microscopy). Type of assay: cell-based. Conditions: 37° C., 30 minutes, rat VEC/SMC-HCM insert. The method, then: (1) 0.1 mg (100 UN) of thrombin (#T7009-100UN, Sigma) was dissolved in 100 μL of physiological saline to prepare a thrombin solution having a concentration of 1000 U/mL. The thrombin solution was further diluted with HBSS(+) to prepare a 25 U/mL thrombin solution and a 100 U/mL thrombin solution.
(2) 900 μL of HBSS(+) was added to each of the wells of a 24-well plate.
(3) The inserts comprising the cell laminate were taken out of the medium, the medium was removed from the inner side of each insert using an aspirator, and the inserts were placed in the wells.
(4) 200 μL of either HBSS(+) (control), the 25 U/mL thrombin solution, or the 100 U/mL thrombin solution was added to the inner side of each of the inserts placed on the wells, and the inserts were incubated at 37° C. for 30 minutes.
(5) The state of the cell laminate was observed under a microscope. The microscopic image of the cell laminate is shown in FIG. 9 (superimposed image of red fluorescence: VE-cadherin and green fluorescence: α-smooth muscle actin).

With thrombin, for the setting “25 U/mL or 100 U/mL thrombin solution, HBSS(+) control”, the cell contraction result is listed as “cell contraction due to activation of actin stress fibers caused by the addition of thrombin was observed”. The “dependence of cell contraction on thrombin concentration” value (25 U/mL versus 100 U/mL thrombin solution) is reported as “Higher thrombin concentrations caused stronger cell contractions”.
